The NIST ThermoML archive (doi:10.1016/j.jct.2012.06.031)

Assay: xn = mol fraction of the nth substance listed
Conditions: 101 kPa, Liquid; for viscosity: Concentric cylinders viscometry; for mass density: Vibrating tube method

c1ccncc1 [pyridine] + CCCO
Conditions	mass density [kg/m3]	viscosity [mPa·s]
288.15 K, x1 = 0.1001	829.179	2.059
288.15 K, x1 = 0.1998	849.304	1.752
288.15 K, x1 = 0.2999	868.538	1.533
288.15 K, x1 = 0.3998	887.029	1.38
288.15 K, x1 = 0.5	904.882	1.258
288.15 K, x1 = 0.5999	922.323	1.189
288.15 K, x1 = 0.7	939.461	1.127
288.15 K, x1 = 0.8	956.178	1.091
288.15 K, x1 = 0.8998	972.394	1.065
288.15 K, x1 = 1	988.061	1.03
293.15 K, x1 = 0.1001	825.041	1.839
293.15 K, x1 = 0.1998	845.036	1.577
293.15 K, x1 = 0.2999	864.154	1.392
293.15 K, x1 = 0.3998	882.542	1.261
293.15 K, x1 = 0.5	900.296	1.156
293.15 K, x1 = 0.5999	917.643	1.096
293.15 K, x1 = 0.7	934.697	1.043
293.15 K, x1 = 0.8	951.331	1.012
293.15 K, x1 = 0.8998	967.464	0.9891
293.15 K, x1 = 1	983.038	0.9588
298.15 K, x1 = 0.1001	820.881	1.651
298.15 K, x1 = 0.1998	840.744	1.426
298.15 K, x1 = 0.2999	859.747	1.269
298.15 K, x1 = 0.3998	878.034	1.157
298.15 K, x1 = 0.5	895.691	1.066
298.15 K, x1 = 0.5999	912.947	1.014
298.15 K, x1 = 0.7	929.913	0.9678
298.15 K, x1 = 0.8	946.465	0.942
298.15 K, x1 = 0.8998	962.52	0.9212
298.15 K, x1 = 1	978.006	0.8943
303.15 K, x1 = 0.1001	816.69	1.488
303.15 K, x1 = 0.1998	836.425	1.291
303.15 K, x1 = 0.2999	855.316	1.165
303.15 K, x1 = 0.3998	873.5	1.064
303.15 K, x1 = 0.5	891.065	0.9865
303.15 K, x1 = 0.5999	908.231	0.9414
303.15 K, x1 = 0.7	925.114	0.9013
303.15 K, x1 = 0.8	941.586	0.879
303.15 K, x1 = 0.8998	957.564	0.8608
303.15 K, x1 = 1	972.967	0.8355
308.15 K, x1 = 0.1001	812.466	1.355
308.15 K, x1 = 0.1998	832.074	1.179
308.15 K, x1 = 0.2999	850.857	1.065
308.15 K, x1 = 0.3998	868.942	0.9819
308.15 K, x1 = 0.5	886.415	0.9149
308.15 K, x1 = 0.5999	903.494	0.8753
308.15 K, x1 = 0.7	920.29	0.8408
308.15 K, x1 = 0.8	936.687	0.8222
308.15 K, x1 = 0.8998	952.593	0.8059
308.15 K, x1 = 1	967.913	0.7837
313.15 K, x1 = 0.1001	808.203	1.205
313.15 K, x1 = 0.1998	827.676	1.076
313.15 K, x1 = 0.2999	846.364	0.9804
313.15 K, x1 = 0.3998	864.355	0.9082
313.15 K, x1 = 0.5	881.735	0.8506
313.15 K, x1 = 0.5999	898.73	0.8167
313.15 K, x1 = 0.7	915.449	0.786
313.15 K, x1 = 0.8	931.765	0.7718
313.15 K, x1 = 0.8998	947.604	0.7566
313.15 K, x1 = 1	962.849	0.7354
318.15 K, x1 = 0.1001	803.899	1.103
318.15 K, x1 = 0.1998	823.264	0.9855
318.15 K, x1 = 0.2999	841.834	0.9038
318.15 K, x1 = 0.3998	859.731	0.8426
318.15 K, x1 = 0.5	877.027	0.7926
318.15 K, x1 = 0.5999	893.938	0.7629
318.15 K, x1 = 0.7	910.581	0.7363
318.15 K, x1 = 0.8	926.83	0.7244
318.15 K, x1 = 0.8998	942.596	0.711
318.15 K, x1 = 1	957.769	0.6912
323.15 K, x1 = 0.1001	799.541	1.009
323.15 K, x1 = 0.1998	818.793	0.9116
323.15 K, x1 = 0.2999	837.265	0.844
323.15 K, x1 = 0.3998	855.071	0.7875
323.15 K, x1 = 0.5	872.286	0.7452
323.15 K, x1 = 0.5999	889.121	0.719
323.15 K, x1 = 0.7	905.688	0.6954
323.15 K, x1 = 0.8	921.867	0.6813
323.15 K, x1 = 0.8998	937.566	0.6741
323.15 K, x1 = 1	952.673	0.6507

c1ccncc1 [pyridine] + OCC(O)CO
Conditions	mass density [kg/m3]	viscosity [mPa·s]
288.15 K, x1 = 0.1	1237.23	1518
288.15 K, x1 = 0.2001	1209.17	853.01
288.15 K, x1 = 0.3001	1182.56	438.65
288.15 K, x1 = 0.4	1156.91	202.46
288.15 K, x1 = 0.4998	1130.25	86.64
288.15 K, x1 = 0.6001	1103.35	29.67
288.15 K, x1 = 0.6999	1075.51	7.871
288.15 K, x1 = 0.8001	1047.04	4.241
288.15 K, x1 = 0.8999	1018	1.944
288.15 K, x1 = 1	988.061	1.03
293.15 K, x1 = 0.1	1233.99	946.3
293.15 K, x1 = 0.2001	1205.75	539.76
293.15 K, x1 = 0.3001	1178.91	283.85
293.15 K, x1 = 0.4	1153.16	135.63
293.15 K, x1 = 0.4998	1126.26	60.5
293.15 K, x1 = 0.6001	1099.12	22.37
293.15 K, x1 = 0.6999	1071.23	6.966
293.15 K, x1 = 0.8001	1042.41	3.639
293.15 K, x1 = 0.8999	1013.18	1.748
293.15 K, x1 = 1	983.038	0.9588
298.15 K, x1 = 0.1	1230.73	608.94
298.15 K, x1 = 0.2001	1202.25	352.75
298.15 K, x1 = 0.3001	1175.23	189.75
298.15 K, x1 = 0.4	1149.36	93.82
298.15 K, x1 = 0.4998	1122.23	43.51
298.15 K, x1 = 0.6001	1094.86	17.25
298.15 K, x1 = 0.6999	1066.63	6.111
298.15 K, x1 = 0.8001	1037.6	3.155
298.15 K, x1 = 0.8999	1008.34	–
298.15 K, x1 = 1	978.006	0.8943
303.15 K, x1 = 0.1	1227.44	403.56
303.15 K, x1 = 0.2001	1198.74	237.3
303.15 K, x1 = 0.3001	1171.52	130.53
303.15 K, x1 = 0.4	1145.49	66.75
303.15 K, x1 = 0.4998	1118.17	32.21
303.15 K, x1 = 0.6001	1090.58	13.57
303.15 K, x1 = 0.6999	1062.16	5.257
303.15 K, x1 = 0.8001	1033.11	2.765
303.15 K, x1 = 0.8999	1003.49	1.439
303.15 K, x1 = 1	972.967	0.8355
308.15 K, x1 = 0.1	1224.12	275.49
308.15 K, x1 = 0.2001	1195.32	164.23
308.15 K, x1 = 0.3001	1167.95	92.29
308.15 K, x1 = 0.4	1141.6	48.72
308.15 K, x1 = 0.4998	1114.07	24.45
308.15 K, x1 = 0.6001	1086.27	10.87
308.15 K, x1 = 0.6999	1057.66	4.532
308.15 K, x1 = 0.8001	1028.43	2.441
308.15 K, x1 = 0.8999	998.628	1.316
308.15 K, x1 = 1	967.913	0.7837
313.15 K, x1 = 0.1	1220.77	192.54
313.15 K, x1 = 0.2001	1191.92	116.47
313.15 K, x1 = 0.3001	1164.44	66.86
313.15 K, x1 = 0.4	1137.67	36.35
313.15 K, x1 = 0.4998	1109.95	18.9
313.15 K, x1 = 0.6001	1081.93	8.841
313.15 K, x1 = 0.6999	1053.14	3.95
313.15 K, x1 = 0.8001	1023.73	2.172
313.15 K, x1 = 0.8999	993.746	1.209
313.15 K, x1 = 1	962.849	0.7354
318.15 K, x1 = 0.1	1217.48	137.7
318.15 K, x1 = 0.2001	1188.63	84.41
318.15 K, x1 = 0.3001	1160.93	49.31
318.15 K, x1 = 0.4	1133.7	27.66
318.15 K, x1 = 0.4998	1105.79	14.88
318.15 K, x1 = 0.6001	1077.57	7.298
318.15 K, x1 = 0.6999	1048.59	3.463
318.15 K, x1 = 0.8001	1019	1.944
318.15 K, x1 = 0.8999	988.846	1.114
318.15 K, x1 = 1	957.769	0.6912
323.15 K, x1 = 0.1	1214.26	101.38
323.15 K, x1 = 0.2001	1185.34	63.12
323.15 K, x1 = 0.3001	1157.38	38.06
323.15 K, x1 = 0.4	1129.71	21.58
323.15 K, x1 = 0.4998	1101.59	12.04
323.15 K, x1 = 0.6001	1073.01	6.153
323.15 K, x1 = 0.6999	1044.02	3.06
323.15 K, x1 = 0.8001	1014.26	1.769
323.15 K, x1 = 0.8999	983.927	1.038
323.15 K, x1 = 1	952.673	0.6507
